Data from patent US20180305332A1, “Bispiperidinyl Derivatives as Liver X Receptor Beta Agonists, Compositions, and Their Use” (Merck Sharp & Dohme Corp., priority 2015, published 2018).

Assays:
[1] = molecular target: T1, GST tagged LXRbeta LBD (ligand binding domain) (Homo sapiens, UniProt P55055); test: LanthaScreen TR-FRET Liver X Receptor Coactivator Assay, LXR beta-LBD; format: biochemical; conditions: relative to reference T0901317; for EC50: Inflection Point (potency), co-activator recruitment, read-out: LXR beta IP; for Emax: read-out: LXR beta act @ max dose (%)
T1 construct: purchased Invitrogen pv4658.pps
T1 sequence (P55055 222-460 limits assumed): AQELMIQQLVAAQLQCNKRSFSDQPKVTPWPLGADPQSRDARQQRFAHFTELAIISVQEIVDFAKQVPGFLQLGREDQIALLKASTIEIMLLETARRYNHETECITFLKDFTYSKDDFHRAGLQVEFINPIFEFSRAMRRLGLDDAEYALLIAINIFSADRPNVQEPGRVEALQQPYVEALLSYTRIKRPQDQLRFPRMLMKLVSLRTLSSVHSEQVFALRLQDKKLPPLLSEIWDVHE
In short: (§1)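 Cmpd + LBD → add fluorescein coactivator peptide/Tb-anti-GST Ab mix → incubate RT → TR-FRET readout. IP and Emax referenced to T0901317 (dual LXR agonist).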

[2] = molecular target: T2, GST tagged LXRalpha LBD (ligand binding domain) (Homo sapiens, UniProt Q13133); test: LanthaScreen TR-FRET Liver X Receptor Coactivator Assay, LXR alpha-LBD; format: biochemical; conditions: relative to reference T0901317; for EC50 / LXR alpha IP (nM): Inflection Point (potency), co-activator recruitment; for EC50: read-out: LXR alpha IP; for Emax: activity at max dose (efficacy), read-out: LXR alpha act @ max dose (%)
T2 construct: purchased Invitrogen pv4655
T2 sequence (Q13133 209-447 limits assumed): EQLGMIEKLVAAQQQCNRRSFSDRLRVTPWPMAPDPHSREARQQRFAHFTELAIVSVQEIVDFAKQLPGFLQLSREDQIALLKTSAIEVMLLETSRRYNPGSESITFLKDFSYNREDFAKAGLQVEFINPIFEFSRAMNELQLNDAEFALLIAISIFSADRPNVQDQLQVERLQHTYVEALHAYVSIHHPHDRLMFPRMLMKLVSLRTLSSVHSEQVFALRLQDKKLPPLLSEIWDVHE
In short: as §1

[3] = activity at max dose (efficacy)

SMILES	EC50 [1] [nM]	Emax [1, 3] [%]	EC50 [2] [nM]	Emax [2] [%]	LXR alpha IP (nM) [2]	LXR beta act @ max dose (%) [1, 3] [%]
CC[C@](O)(C(=O)N1CCC(C2CCN(c3ccc(C(=O)N(C)C)c(Cl)c3)CC2)CC1)C(F)(F)F (single isomer, unassigned) [Example A-42]	61	117	3000	67		
Cc1cccc(C2(C(=O)N3CCC(C4CCN(c5ccc(C(=O)N(C)C)c(Cl)c5)CC4)CC3)CCC2)c1 [Example A-19, 2-chloro-N,N-dimethyl-4-(1′-{[1-(3-methylphenyl)cyclobutyl]carbonyl}-4,4′-bipiperidin-1-yl)benzamide]	124	94	1750	17		
CN(C)C(=O)c1ccc(N2CCC(C3CCN(C(=O)c4c(Cl)cccc4Cl)CC3)CC2)nc1Cl [Example B-10, 2-chloro-6-{1′-[(2,6-dichlorophenyl)carbonyl]-4,4′-bipiperidin-1-yl}-N,N-dimethylpyridine-3-carboxamide]	161	106	1370	55		
COC(=O)c1ccc(N2CCC(C3CCN(C(=O)OC(C)(C)C)CC3)CC2)nc1Cl [Example E-1, tert-butyl 1′-[6-chloro-5-(methoxycarbonyl)pyridin-2-yl]-4,4′-bipiperidine-1-carboxylate]	237	36	857	29		
CC(C)[C@](O)(C(=O)N1CCC(C2CCN(c3ccc(C(=O)N(C)C)c(Cl)c3)CC2)CC1)C(F)(F)F (single isomer, unassigned) [Example A-3]	63	103	3550	36		
CN(C)C(=O)c1ccc(N2CCC(C3CCN(C(=O)C(F)(F)c4ccccc4Cl)CC3)CC2)cc1Cl [Example A-62, 2-chloro-4-{1′-[(2-chlorophenyl)(difluoro)acetyl]-4,4′-bipiperidin-1-yl}-N,N-dimethylbenzamide]	22	131	782	74		
CN(CCO)C(=O)c1ccc(N2CCC(C3CCN(C(=O)[C@](O)(c4ccccc4)C(F)(F)F)CC3)CC2)cc1Cl [Example E-58, 2-chloro-N-(2-hydroxyethyl)-N-methyl-4-{1′-[(2R)-3,3,3-trifluoro-2-hydroxy-2-phenylpropanoyl]-4,4′-bipiperidin-1-yl}benzamide]	57	98	1830	48		
O=C(c1ccc(N2CCC(C3CCN(C(=O)[C@](O)(c4ccccc4)C(F)(F)F)CC3)CC2)cc1Cl)N1CC(O)C1 [Example E-36, 1-[(2-chloro-4-{1′-[(2R)-3,3,3-trifluoro-2-hydroxy-2-phenylpropanoyl]-4,4′-bipiperidin-1-yl}phenyl)carbonyl]azetidin-3-ol]	453	74	3820	23		
CC1CCCN(C(=O)c2ccc(N3CCC(C4CCN(C(=O)[C@](O)(c5ccccc5)C(F)(F)F)CC4)CC3)cc2Cl)C1 (stereo partly drawn) [Example E-38, (2R)-3-(1′-{3-chloro-4-[(3-methylpiperidin-1-yl)carbonyl]phenyl}-4,4′-bipiperidin-1-yl)-1,1,1-trifluoro-3-oxo-2-phenylpropan-2-ol]	276	57		0	NO IP	
CNC(=O)c1ccc(N2CCC(C3CCN(C(=O)[C@](O)(c4ccccc4)C(F)(F)F)CC3)CC2)cc1Cl [Example E-62, 2-chloro-N-methyl-4-{1′-[(2R)-3,3,3-trifluoro-2-hydroxy-2-phenylpropanoyl]-4,4′-bipiperidin-1-yl}benzamide]	341	99	2060	33		
CC(C)CC(O)(C(=O)N1CCC(C2CCN(c3ccc(C(=O)N(C)C)c(Cl)c3)CC2)CC1)C(F)(F)F (centres unmarked) [Example A-5, 2-chloro-4-{1′-[2-hydroxy-4-methyl-2-(trifluoromethyl)pentanoyl]-4,4′-bipiperidin-1-yl}-N,N-dimethylbenzamide]	51		869	55		113
CN(C)C(=O)c1ccc(N2CCC(C3CCN(C(=O)C(O)(C(F)(F)F)C(F)(F)F)CC3)CC2)cc1Cl [Example A-35, 2-chloro-N,N-dimethyl-4-{1′-[3,3,3-trifluoro-2-hydroxy-2-(trifluoromethyl)propanoyl]-4,4′-bipiperidin-1-yl}benzamide]	7	86	217	59		
CN(C)C(=O)c1ccc(N2CCC(C3CCN(C(=O)C4(c5ccccc5F)CC4)CC3)CC2)cc1Cl [Example A-71, 2-chloro-4-(1′-{[1-(2-fluorophenyl)cyclopropyl]carbonyl}-4,4′-bipiperidin-1-yl)-N,N-dimethylbenzamide]	64	127	1640	62		
Cc1cccc(C(O)(C(=O)N2CCC(C3CCN(c4ccc(C(=O)N(C)C)c(Cl)c4)CC3)CC2)C(F)(F)F)c1 (centres unmarked) [Example A-68, 2-chloro-N,N-dimethyl-4-{1′-[3,3,3-trifluoro-2-hydroxy-2-(3-methylphenyl)propanoyl]-4,4′-bipiperidin-1-yl}benzamide]	280	91		27	NO IP	
CN(C)C(=O)c1ccc(N2CCC(C3CCN(C(=O)C4(c5ccc(Cl)cc5Cl)CCC4)CC3)CC2)cc1Cl [Example A-77, 2-chloro-4-(1′-{[1-(2,4-dichlorophenyl)cyclobutyl]carbonyl}-4,4′-bipiperidin-1-yl)-N,N-dimethylbenzamide]	52	86	618	31		
CN(C)C(=O)c1ccc(N2CCC(C3CCN(C(=O)C(C)(C)c4ccc(O)cc4)CC3)CC2)cc1Cl [Example A-58, 2-chloro-4-{1′-[2-(4-hydroxyphenyl)-2-methylpropanoyl]-4,4′-bipiperidin-1-yl}-N,N-dimethylbenzamide]	100	112	3690	59		
Cc1nc(N2CCC(C3CCN(C(=O)C(O)(C(C)C)C(F)(F)F)CC3)CC2)ccc1C(=O)N(C)C (centres unmarked) [Example C-1, 6-(1′-(2-Hydroxy-3-methyl-2-(trifluoromethyl)butanoyl)-[4,4′-bipiperidin]-1-yl)-N,N,2-trimethylnicotinamide]	148	101	21	24		
CC(C)C(O)(C(=O)N1CCC(C2CCN(c3ccc(C(=O)N(C)C)c(Cl)c3)CC2)CC1)C(C)C [Example A-109, 2-chloro-4-{1′-[2-hydroxy-3-methyl-2-(1-methylethyl)butanoyl]-4,4′-bipiperidin-1-yl}-N,N-dimethylbenzamide]	61	98	54200	22		
CC(C)N(C)C(=O)c1ccc(N2CCC(C3CCN(C(=O)C(O)(C(C)C)C(F)(F)F)CC3)CC2)cc1Cl (centres unmarked) [Example E-6, 2-chloro-4-{1′-[2-hydroxy-3-methyl-2-(trifluoromethyl)butanoyl]-4,4′-bipiperidin-1-yl}-N-methyl-N-(1-methylethyl)benzamide]	111	101	761	53		
CS(=O)(=O)c1ccc(N2CCC(C3CCN(C(=O)[C@](O)(c4ccccc4)C(F)(F)F)CC3)CC2)cc1Cl [Example D-7, (2R)-3-{1′-[3-chloro-4-(methylsulfonyl)phenyl]-4,4′-bipiperidin-1-yl}-1,1,1-trifluoro-3-oxo-2-phenylpropan-2-ol]	180	82	413	20		
CN(C)C(=O)c1ccc(N2CCC(C3CCN(C(=O)C(C)(C)c4ccccc4)CC3)CC2)cc1Cl [Example A-12, 2-chloro-N,N-dimethyl-4-[1′-(2-methyl-2-phenylpropanoyl)-4,4′-bipiperidin-1-yl]benzamide]	14	114	2460	47		
CC(C)C(O)(C(=O)N1CCC(C2CCN(c3ccc(C(=O)N(C)C)c(Cl)n3)CC2)CC1)C1CC1 (centres unmarked) [Example B-3, 2-chloro-6-[1′-(2-cyclopropyl-2-hydroxy-3-methylbutanoyl)-4,4′-bipiperidin-1-yl]-N,N-dimethylpyridine-3-carboxamide]	325	143	1790	71		
CN(C)C(=O)c1ccc(N2CCC(C3CCN(C(=O)C4(c5ccccc5Cl)CC4)CC3)CC2)cc1Cl [Example A-86, 2-chloro-4-(1′-{[1-(2-chlorophenyl)cyclopropyl]carbonyl}-4,4′-bipiperidin-1-yl)-N,N-dimethylbenzamide]	16	112	671	73		
